In PMC3256188, “Novel Nonphosphorylated Peptides with Conserved Sequences Selectively Bind to Grb7 SH2 Domain with Affinity Comparable to Its Phosphorylated Ligand” (PLoS ONE, 2012):
Entries after “also recorded” stand apart in the source; their conditions may differ.

Columns and labels:
[1] = target: T1, GFP-Grb7 SH2 domain and 41-mRLUC-3×Flag complex (Homo sapiens, UniProt Q14451); experiment: Competition immunoprecipitation, GFP-Grb7 SH2 domain and 41-mRLUC-3×Flag complex; format: binding
T1 construct: expressed in transfected cells; host or cells: HEK293T
T1 sequence (Q14451 425-532, one chain of several): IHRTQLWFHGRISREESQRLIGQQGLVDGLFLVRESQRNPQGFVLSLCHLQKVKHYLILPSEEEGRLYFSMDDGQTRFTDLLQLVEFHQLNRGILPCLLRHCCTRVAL
Description: To see whether the nonphosphorylated peptide could effectively compete with phosphorylated ligand for binding to the Grb7 SH2 domain, the phosphorylated ligand pY (1180) (DEEYEpY(1180)MNRRR), which was previously shown to interact with the Grb7 SH2 domain [6], and the nonphosphorylated 41-A ligand ([…]), which contains the first twenty-two amino acid-motif close to the N-terminus of peptide 41, were examine for their abilities to interfere with the GFP-Grb7 SH2 domain and 41-mRLUC-3×Flag complex using immunoprecipitation with anti-GFP antibody.
The phosphorylated ligand pY (1180) (DEEYEpY(1180)MNRRR) from the ErbB3 and the nonphosphorylated peptide 41-A ([…] RV) from nonphosphorylated peptide 41 were synthesized by the China Peptides Co., Ltd. The HPLC purification analysis and MS quality analysis reports were obtained.
HEK293T cells were washed 5 times with ice-cold PBS buffer and scraped off the plates into cell lysis buffer (1% Nonidet P-40, 0.02 M TRIS (pH 7.5), 0.15 M sodium chloride, 0.001 M EDTA, 0.5% sodium deoxycholate, 0.1% SDS and 0.001 M PMSF). Lysates were incubated on ice for 5 minutes, vortexed 2 times for 30 seconds each and centrifuged at 12,000 rpm for 15 minutes at 4°C. After centrifuging twice, the supernatant was incubated with anti-Flag antibody (1∶100, M20008M, Abmart, China) for 6–8 h at 4°C. Protein G agarose (40 µL) was added into 1 mL of the above mixture and coupled to the anti-Flag antibody for 3 h at 4°C. The immunoprecipitates were washed 2–3 times with PBS buffer (PH 7.4), and the sediments were diluted with 5×SDS electrophoresis buffer and heated at 97°C for 10 minutes. The proteins were separated by SDS-PAGE and transferred to PVDF membranes (IPVH00010, Millipore, USA). The membranes were incubated with anti-GFP antibody (1∶2000, P30010, Abmart, China) and goat anti-rabbit secondary antibody (1∶4000, M21002, Abmart, China) to identify target proteins. For the competition analyses, the immunoprecipitation complexes were mixed with anti-Flag antibody and different concentrations of the synthesized phosphorylated ligands or the nonphosphorylated ligands. The proteins were separated by SDS-PAGE, and the SH2 domain of Grb7 protein was analyzed using anti-GFP antibody. Western blot analysis was carried out using the Image J [37], the IC50 values were calculated by regression analyses using SPSS 17.0.

[2] = target: Grb7 SH2 domain; parameters: method as in earlier work; settings: binding to Grb7 SH2 domain; calorimetric (title of ref 27); read-out: dissociation constant (Kd); cited from earlier work
Description: Many drugs are designed to target the SH2 domain of Grb7. […] This peptide also serves as a model for chemical drug de ...

[3] = tested on: Grb7 SH2 domain; experiment: Co-immunoprecipitation from transfected HEK293T cells; format: binding; settings: HEK293T co-transfected with peptide-mRLUC-3×Flag and EGFP-Grb7 SH2, 36 h; anti-Flag IP, anti-GFP blot
Description: In the co-immunoprecipitation assay, the mRLUC fragment was generated by PCR amplification. The inserted sequence of the Grb7 SH2 domain was as follows: N- […]-C. This sequence was inserted at the C terminus of the EGFP tag. The sequence of peptide 10 was as follows: N-[…]-C. The sequence of peptide 41 was as follows: N-[…]-C. The sequence of peptide 10CM was as follows: N-[…]-C. The nonphosphorylated peptide and the mRLUC fragment were inserted at the N-terminus of the Flag tag. The mRLUC fragment was fused with the nonphosphorylated peptide so that they could be easily identifiable. The empty vector containing the mRLUC fragment was used as the negative control.
(§1) HEK293T cells at 70%–80% confluency were given fresh DMEM (high glucose) culture medium and transfected with plasmids using the calcium phosphate method. Samples were collected at 36 h after transfection.
HEK293T cells were washed 5 times with ice-cold PBS buffer and scraped off the plates into cell lysis buffer (1% Nonidet P-40, 0.02 M TRIS (pH 7.5), 0.15 M sodium chloride, 0.001 M EDTA, 0.5% sodium deoxycholate, 0.1% SDS and 0.001 M PMSF). […] The proteins were separated by SDS-PAGE, and the SH2 domain of Grb7 protein was analyzed using anti-GFP antibody. Western blot analysis was carried out using the Image J [37], the IC50 values were calculated by regression analyses using SPSS 17.0.

[4] = tested on: EYFP-tagged Grb7 SH2 domain; experiment: Bioluminescence Resonance Energy Transfer (BRET) in HEK293T cells; format: cell-based; settings: 36 h after transfection, EYFP-Grb7 SH2 + mRLUC-tagged peptide, coelenterazine 5.9 µM, eighteen group ratios
Description: For the BRET assay, the EYFP fragment was generated by PCR amplification. The ErbB3-mRLUC plasmid was constructed by the Beijing Sino Biological Inc. The SH2 domain of Grb7 was fused to the EYFP fragment, and the nonphosphorylated peptides 10 and 41 were fused to the mRLUC fragment. The Grb7 SH2 domain sequence was inserted at the C-terminus of the EYFP tag.
as §1
In BRET, the Renilla luciferase (mRLUC) is fused to the candidate protein, and the green fluorescent protein mutant (EYFP) is fused to the target protein. Interactions between the two fused proteins bring the luciferase and the green fluorescent protein into close proximity, which promotes resonance energy transfer from mRLUC to EYFP [38]. Then EYFP is […] at 530 nm, and the emission is used to determine the binding between the two interacting proteins. In this study, HEK293T cells were collected at 36 h after transfection, 100 µL of mixed cell suspension was added to the u-bottom 96-well microtiter plates (Corning, USA) before measurement. The measurement of bioluminescence, with rasters of 460/40 nm and 518/20 nm, was performed on Synergy4 Multi-Mode Microplates Readers (BioTek, USA). The BRET reaction was initiated by 5.9 µM coelenterazine (Promega, USA). Data were analyzed by one-factor analysis of variance using SPSS 17.0.

[5] = tested on: SK-BR-3 breast cancer cells; experiment: MTS cell proliferation assay; format: cell-based; settings: double-factor variance analysis, n = 10, p<0.001, Figure 4B
Protocol: For the cell proliferation assay, the anti-Grb7 antibody (N-20, Santa Cruz Biotechnology, USA) and the anti-Flag antibody (M20008M, Abmart, China) were used for the western blot, and MTS (Promega, USA) was used for the analysis of cell proliferation.
The MTS cell proliferation assay was performed to analyze the proliferation of SK-BR-3 breast cancer cells (Cell culture center of PUMC, China) according to the manufacturer's instructions (Promega, USA). SK-BR-3 cells at 70%–80% confluency were transiently transfected respectively with plasmids of 41-mRLUC-3×Flag or mRLUC-3×Flag and Mega Tran 1.0 (OriGene, USA). Beginning from 12 h after transfection, 400 µg/mL G418 (11811-023, Invitrogen, USA) was used to select for the transfected cells. The u-bottom 96-well microtiter plates (Corning, USA) were seeded with approximately 7.50×10^3 cells per well at 18 h after transfection. […] The absorbance at 492 nm of transfected cells and control DMEM medium was measured separately at 18 h, 24 h, 36 h, 48 h and 60 h after transfection on Synergy4 Multi-Mode Microplates Readers (BioTek, USA). The absorbance was adjusted by differences in the absorbance between cell culture medium and control medium without seeded cells. The data were analyzed by double-factor variance analysis using SPSS 17.0.

Row | interference with binding of the Grb7 SH2 domain to peptide 41 ([1]; 0.0072 mM) | interference with binding of the Grb7 SH2 domain to peptide 41 ([1]; 0.036 mM) | interference with binding of the Grb7 SH2 domain to peptide 41 ([1]; 0.18 mM) | binding to the Grb7 SH2 domain in the absence of competitor ([1]; in the absence of peptide pY (1180) and peptide 41-A, Figure 3A) | Substance | disruptive effect on the Grb7 SH2 domain/peptide 41 interaction ([1]; Figure 3A, overall, concentration not given) | binding affinity to the Grb7 SH2 domain, comparison of 41-A and pY (1180) ([1]; in vitro competition, in words) | Kd [2] | pull-down of the Grb7 SH2 domain (co-immunoprecipitation) [3] | BRET luminescence ratio of 530/480 nm [4] | adjusted absorbance between transfected cell groups and between time points [5]
1 | did not significantly interfere | did not significantly interfere | nearly abolished | – | DEEYEpY(1180)MNRRR [pY (1180), phosphorylated ligand pY (1180) (DEEYEpY(1180)MNRRR) from the ErbB3, reference compound] | abolished the association between the Grb7 SH2 domain and nonphosphorylated peptide 41 | at least comparable binding affinities to the Grb7 SH2 domain | ~1.15 µM | – | – | –
2 | – | – | – | could bind to the Grb7 SH2 domain | N-VGTWTTRGPWCPCVAVGIPTQPTTSSEPSPPSNPPWDPGRVLLGRIVWPGLLALGIPTHHQNDTYNSPHAHPNRDP-C [peptide 41, nonphosphorylated peptide with two twenty-two residue motifs, 41-A and 41-B] | – | – | – | pulled down the Grb7 SH2 domain; also recorded: co-immunoprecipitated | significantly stronger | Statistically significant differences existed in both of groups
